Measured values published in PMC10746543, “Design principles for cyclin K molecular glue degraders” (Nature Chemical Biology, 2023).
Where “and” joins values, the source holds several entries; their conditions need not be identical. Identical values can stand only once. Like-named read-outs stand apart in the source and are kept apart here.

Assays:
cyclin K = experiment: Label-free quantitative mass spectrometry in MDA-MB-231 cells, cyclin K; type: cell-based, human; details: for cyclin K depletion, result in words: MDA-MB-231 cells, 1 µM, 5 h; for CCNK peptide count (DMSO-normalised): normalised to DMSO = 1, replicate values
Procedure: MDA-MB-231 cells were treated with DMSO or a cyclin K degrader compound at 1 µM for 5 h. Cells were collected by centrifugation and washed with phosphate-buffered saline before snap freezing in liquid nitrogen. Cells were lysed by addition of lysis buffer (8 M urea, 50 mM NaCl, 50 mM 4-(2-hydroxyethyl)-1-piperazineethanesulfonic acid (EPPS) pH 8.5, and protease and phosphatase inhibitors) and homogenization by bead beating (BioSpec) for three repeats of 30 s at 2,400 rpm. Bradford assay was used to determine the final protein concentration in the clarified cell lysate. Then 50 µg of protein for each sample was reduced, alkylated and precipitated using methanol/chloroform as previously described, and the resulting washed precipitated protein was allowed to air dry. Precipitated protein was resuspended in 4 M urea, 50 mM HEPES pH 7.4, followed by dilution to 1 M urea with the addition of 200 mM EPPS, pH 8. Proteins were first digested with LysC (1:50; enzyme:protein) for 12 h at room temperature. The LysC digestion was diluted to 0.5 M urea with 200 mM EPPS pH 8 followed by digestion with trypsin (1:50; enzyme:protein) for 6 h at 37 °C. Sample digests were acidified with formic acid to a pH of 2–3 before desalting using C18 solid phase extraction plates (SOLA, Thermo Fisher Scientific). Desalted peptides were dried in a vacuum-centrifuged and reconstituted in 0.1% formic acid for liquid chromatography–mass spectrometry analysis.
Data were collected using a TimsTOF Pro2 (Bruker Daltonics) coupled to a nanoElute LC pump (Bruker Daltonics) via a CaptiveSpray nano-electrospray source. Peptides were separated on a reversed-phase C18 column (25 cm × 75 µm inner diameter, […], IonOpticks) containing an integrated captive spray emitter. Peptides were separated using a 50 min gradient of 2–30% buffer B (acetonitrile in 0.1% formic acid) with a flow rate of 250 nl min^−1 and column temperature maintained at 50 °C.
Data-dependent acquisition (DDA) was performed in Parallel Accumulation-Serial Fragmentation (PASEF) mode to determine effective ion mobility windows for downstream diaPASEF data collection. The ddaPASEF parameters included: 100% duty cycle using accumulation and ramp times of 50 ms each, one Trapped Ion Mobility Spectrometry(TIMS)-MS scan and ten PASEF ramps per acquisition cycle. The TIMS-MS survey scan was acquired between 100 m/z and 1,700 m/z and 1/K0 of 0.7–1.3 V s cm^−2. Precursors with one to five charges were selected, and those that reached an intensity threshold of 20,000 arbitrary units were actively excluded for 0.4 min. The quadrupole isolation width was set to 2 m/z for m/z < 700 and 3 m/z for m/z > 800, with the m/z between 700 m/z and 800 m/z being interpolated linearly. […] To perform diaPASEF, the precursor distribution in the DDA m/z-ion mobility plane was used to design an acquisition scheme for data-independent acquisition (DIA) data collection that included two windows in each 50 ms diaPASEF scan. Data were acquired using 16 of these 25 Da precursor double window scans (creating 32 windows) that covered the diagonal scan line for doubly and triply charged precursors, with singly charged precursors able to be excluded by their position in the m/z-ion mobility plane. These precursor isolation windows were defined between 400 m/z and 1,200 m/z and 1/K0 of 0.7–1.3 V s cm^−2.
DirectDIA mode includes first extracting the DIA data into a collection of MS2 spectra which are searched using Spectronaut’s Pulsar search engine. The search results are then used to generate a spectral library which is then employed for the targeted analysis of the DIA data. MS/MS spectra were searched against a Swissprot human database (January 2021). Database search criteria largely followed the default settings for directDIA including: tryptic with two missed cleavages, fixed carbomidomethylation of cysteine, and variable oxidation of methionine and acetylation of protein N-termini and precursor Q-value (FDR) cut-off of 0.01. […]

[1] = test system: cyclin K–eGFP degradation reporter; experiment: Cyclin K reporter stability analysis (dual-color cyclin K–eGFP reporter); type: cell-based, human; details: for reporter assay signal (normalized): replicates
How it was run: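 Values reflect cyclin K–eGFP levels after a 5 h exposure, expressed as the green-to-red fluorescence ratio and scaled to three vehicle-treated controls. Measurements came from HEK293T–Cas9 reporter cells by flow cytometry.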

HEK293T cells = experiment: Drug sensitivity assay (CellTiter-Glo viability) with or without MLN4924 pretreatment; type: cell-based, human; details: for EC50: Homo sapiens, HEK-293T, HEK293T viability, 72 h, compound alone, read-out: Cellular assays EC50; for EC50 / Toxicity rescue: Supplementary Table 2; for Toxicity rescue: MLN4924-mediated cytotoxicity rescue, 10 µM used where n.d.; for CTG: MLN4924 yes, HEK293T, single well
How it was run: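 Luminescent ATP read-out (CellTiter-Glo) after 3 days of drug exposure, normalised to DMSO controls. Cells were HEK293T–Cas9, pretreated with 100 nM MLN4924 or DMSO for 2 h before drug dispensing.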

CDK9–cyclin T = target: T1, CDK9–cyclin T (Homo sapiens, UniProt P50750); experiment: Lanthascreen kinase binding assay, CDK9; details: Supplementary Table 2; read-out: Lanthascreen IC50 [nM] CDK9
T1 construct: purchased Thermo Fisher
Procedure: Lanthascreen experiments were performed using commercially available reagents (Thermo Fisher) and according to the manufacturer’s instructions.

[2] = individual replicates, sheet EDF7
[3] = label-free quantitative MS, replicate values
[4] = source data sheet correlations, read-out: DC50

T1 sequence (P50750 whole entry): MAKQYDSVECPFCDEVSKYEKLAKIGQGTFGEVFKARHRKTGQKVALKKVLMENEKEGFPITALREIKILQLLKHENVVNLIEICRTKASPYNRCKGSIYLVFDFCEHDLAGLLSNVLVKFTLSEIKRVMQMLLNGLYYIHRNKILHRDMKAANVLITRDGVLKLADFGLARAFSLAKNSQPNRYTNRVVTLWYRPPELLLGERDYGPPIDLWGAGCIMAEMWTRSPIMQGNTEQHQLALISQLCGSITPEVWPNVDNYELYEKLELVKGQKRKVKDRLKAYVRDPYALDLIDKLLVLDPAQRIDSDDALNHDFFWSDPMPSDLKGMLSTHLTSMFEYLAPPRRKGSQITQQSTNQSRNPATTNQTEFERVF
T1 sequence (O60563 whole entry partner): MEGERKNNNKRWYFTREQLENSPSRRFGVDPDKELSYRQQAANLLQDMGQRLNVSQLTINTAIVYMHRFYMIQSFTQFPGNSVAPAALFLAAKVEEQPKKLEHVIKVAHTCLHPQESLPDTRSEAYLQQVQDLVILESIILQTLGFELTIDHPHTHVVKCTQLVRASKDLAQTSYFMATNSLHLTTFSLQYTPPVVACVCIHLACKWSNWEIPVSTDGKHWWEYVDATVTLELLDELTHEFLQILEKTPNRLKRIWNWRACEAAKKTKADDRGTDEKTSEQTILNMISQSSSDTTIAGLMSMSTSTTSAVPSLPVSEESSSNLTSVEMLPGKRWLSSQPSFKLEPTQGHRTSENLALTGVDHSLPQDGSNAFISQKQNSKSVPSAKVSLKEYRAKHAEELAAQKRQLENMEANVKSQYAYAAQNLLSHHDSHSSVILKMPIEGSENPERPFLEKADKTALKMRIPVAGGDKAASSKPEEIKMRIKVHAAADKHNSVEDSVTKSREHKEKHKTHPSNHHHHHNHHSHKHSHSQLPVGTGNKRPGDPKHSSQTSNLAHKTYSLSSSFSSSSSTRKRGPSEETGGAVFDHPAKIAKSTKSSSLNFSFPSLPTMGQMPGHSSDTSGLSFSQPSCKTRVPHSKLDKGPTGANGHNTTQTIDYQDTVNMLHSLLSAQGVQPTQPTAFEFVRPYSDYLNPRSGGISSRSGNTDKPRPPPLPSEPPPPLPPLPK

Cn1cc(-n2cnc3c(NCc4nc5cc(Cl)c(Cl)cc5[nH]4)nc(N4CCOCC4)nc32)cn1 [SR-4835]
cyclin K depletion, result in words (cyclin K): more effective at depleting cyclin K than CR8 | cyclin K abundance (label-free MS) (cyclin K; [2]): 69.2958 and 61.7731 | cyclin K abundance (label-free MS) (cyclin K; [3]): 69.2958 and 61.7731 | CCNK peptide count (DMSO-normalised) (cyclin K): 0.03786 and 0.03436 | average CCNK peptide count (cyclin K; sheet EDF7): 65.5345 | DC50 ([1]; Supplementary Fig. 4, HEK293T cycKeGFP reporter, 5h, n=2, read-out: DC50 printed on reporter plot): 39 nM | DC50 [1, 4]: 14 nM | EC50 (HEK293T cells): 42 nM | Toxicity rescue (HEK293T cells): 645% | IC50 (CDK9–cyclin T): 3660 nM

CC(C)c1nn(-c2c(Cl)cccc2Cl)c2nc(Cc3ccc(OCCO)cc3)[nH]c(=O)c12 [compound 21195]
cyclin K depletion, result in words (cyclin K): more effective at depleting cyclin K than CR8 | CCNK peptide count (cyclin K; [2]): 55.265 and 55.9786 | CCNK peptide count (cyclin K; [3]): 55.265 and 55.9786 | CCNK peptide count (DMSO-normalised) (cyclin K): 0.03019 and 0.03114 | average CCNK peptide count (cyclin K; sheet EDF7): 55.6218 | reporter assay signal (normalized) ([1]; 2 nM): 0.9561 and 0.9287 | reporter assay signal (normalized) ([1]; 3 nM): 0.9797 and 0.9734 | reporter assay signal (normalized) ([1]; 4.5 nM): 0.9145 and 0.9397 | reporter assay signal (normalized) ([1]; 7.68 nM): 0.9019 and 0.9312 | reporter assay signal (normalized) ([1]; 22.8 nM): 0.769 and 0.8233 | reporter assay signal (normalized) ([1]; 34.2 nM): 0.7674 and 0.787 | reporter assay signal (normalized) ([1]; 51.3 nM): 0.6849 and 0.771 | reporter assay signal (normalized) ([1]; 77 nM): 0.6566 and 0.7136 | reporter assay signal (normalized) ([1]; 260 nM): 0.6047 and 0.6647 | reporter assay signal (normalized) ([1]; 390 nM): 0.6094 and 0.6714 | reporter assay signal (normalized) ([1]; 585 nM): 0.6094 and 0.6655 | reporter assay signal (normalized) ([1]; 877 nM): 0.6086 and 0.6352 | reporter assay signal (normalized) ([1]; 1970 nM): 0.5992 and 0.6495 | reporter assay signal (normalized) ([1]; 2960 nM): 0.552 and 0.6731 | reporter assay signal (normalized) ([1]; 4440 nM): 0.5937 and 0.62 | reporter assay signal (normalized) ([1]; 6670 nM): 0.5457 and 0.6014 | reporter assay signal (normalized) ([1]; 10000 nM): 0.5701 and 0.6031 | cyclin K reporter degradation, result in words ([1]; HEK293T): potent degraders | DC50 [1, 4]: 26 nM | viability assay signal (normalized) (HEK293T cells; 5 nM, + MLN4924): 0.9981 and 0.9962 | viability assay signal (normalized) (HEK293T cells; 5 nM, without MLN4924): 1.164 and 1.103 | viability assay signal (normalized) (HEK293T cells; 10.7 nM, + MLN4924): 1.03 and 0.9545 | viability assay signal (normalized) (HEK293T cells; 10.7 nM, without MLN4924): 1.004 and 0.916 | viability assay signal (normalized) (HEK293T cells; 22.9 nM, + MLN4924): 1.044 and 1.059 | viability assay signal (normalized) (HEK293T cells; 22.9 nM, without MLN4924): 0.9744 and 0.9831 | viability assay signal (normalized) (HEK293T cells; 48.9 nM, + MLN4924): 0.9201 and 0.8826 | viability assay signal (normalized) (HEK293T cells; 48.9 nM, without MLN4924): 0.5003 and 0.5087 | viability assay signal (normalized) (HEK293T cells; 105 nM, + MLN4924): 0.7478 and 0.7261 | viability assay signal (normalized) (HEK293T cells; 105 nM, without MLN4924): 0.2946 and 0.2725 | viability assay signal (normalized) (HEK293T cells; 224 nM, + MLN4924): 0.3645 and 0.3756 | viability assay signal (normalized) (HEK293T cells; 224 nM, without MLN4924): 0.297 and 0.2837 | viability assay signal (normalized) (HEK293T cells; 478 nM, + MLN4924): 0.2678 and 0.2737 | viability assay signal (normalized) (HEK293T cells; 478 nM, without MLN4924): 0.2806 and 0.2662 | CTG (HEK293T cells; 2190 nM): 32283 | viability assay signal (normalized) (HEK293T cells; 2190 nM, + MLN4924): 0.2528 and 0.2544 | viability assay signal (normalized) (HEK293T cells; 2190 nM, without MLN4924): 0.2713 and 0.2676 | CTG (HEK293T cells; 4680 nM): 28534 and 32644 | viability assay signal (normalized) (HEK293T cells; 4680 nM, + MLN4924): 0.2234 and 0.2556 | viability assay signal (normalized) (HEK293T cells; 4680 nM, without MLN4924): 0.2632 and 0.2448 | CTG (HEK293T cells; 10000 nM): 27157 and 28920 | viability assay signal (normalized) (HEK293T cells; 10000 nM, + MLN4924): 0.2126 and 0.2265 | viability assay signal (normalized) (HEK293T cells; 10000 nM, without MLN4924): 0.2678 and 0.2469 | EC50 (HEK293T cells): 39 nM | Toxicity rescue (HEK293T cells): 226%
